Results reported in patent publication EP4400508A1, “ACTIVE PEPTIDE AND USE THEREOF” (Harvest Biotech Co., Ltd, priority 2021, dated 2024).
No end group written: not given here.

Test system: Chicken Embryo
Test: Chicken embryo safety test (HET-CAM, SN/T 2329-2009), irritation score method
Conditions: dose up to 500 ppm

ESETRILLQ [EQ-9, ESETRILLQ]
Irritation Classification (HET-CAM): non-irritant | irritation score (IS) (HET-CAM): 0.35 | safety issue (FIG. 1): no safety issue
